PubChem BioAssay (NCI)
“And” between values parts separate entries of the source, which are not always exact repeats. Equal entries are not always repeated.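 Dose response: 5 concentrations. Exposure: 48 h. Format: 96-well plates. Endpoint: linear interpolation; highest concentration if not reached. Here, GI50 denotes the concentration required for 50% inhibition of growth. At the TGI there is no net growth.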

The compounds below were run on HT29 colon (assay: inhibition of tumour cell growth, NCI panel, 48 h).

| SMILES | TGI | GI50 [µM] |
| --- | --- | --- |
| Clc1ccc2c(c1)[nH]c1c2nc2ccccn21 | 45.4 µM and 28.9 µM |  |
| CCOC(=O)c1cnc2c(ccc3[nH]n(C)nc32)c1=O | > 100 µM |  |
| NC(=S)N/N=C(\CC1OC(=O)c2ccccc21)c1ccc(Cl)cc1 (configuration not stated) | 65.9 µM |  |
| COc1ccc2occ(CCC(=O)O)c2c1 | > 100 µM |  |
| COC(=O)C(C(=O)c1ccccc1)C(C(=O)C(=O)Nc1ccc(OC)cc1OC)C(=O)C(=O)c1ccc(C)cc1 (configuration not stated) | > 100 µM |  |
| CC1(C)COC(C2(C)C(=O)C=C(c3ccccc3)c3ccccc32)=N1 (configuration not stated) | 99 µM |  |
| O=C(Nc1ccn(CCO)c(=O)n1)c1ccccc1 | > 100 µM |  |
| O=C1CCC2(c3ccc(Cl)cc3)Nc3ncccc3N12 (configuration not stated) | > 100 µM |  |
| COc1ccc(Sc2[nH]c(C(C)=O)c3ccccc23)cc1 | 30.7 µM | 15.4 |
| C#CCOc1cccc(-c2ncc3cc(NC(=O)CCl)ccc3n2)c1 | 3.99 µM | 2.02 |
| CC12C/C(=C\c3ccccc3)C(=O)C3C1CCCC32 | > 100 µM |  |
| OC(CC1SCCCS1)c1ccccc1 (configuration not stated) | > 100 µM |  |
| CCCCOC(=O)CNC(=O)OC/C=C/C#CC#C/C=C/COC(=O)NCC(=O)OCCCC | > 100 µM | > 100 |
| O=C1c2ccccc2C(=O)N1CCn1ccc(NC(c2ccccc2)(c2ccccc2)c2ccccc2)nc1=O | 30.5 µM |  |
| CC(C)(C)NNC(=O)CCn1[nH]c(=O)c(Cl)c(Cl)c1=O | > 100 µM |  |
| CCC12CCCN(Cc3ccccc3)C1c1c(n(C)c3ccccc13)CC2 (configuration not stated) | > 253 µM |  |
| CSc1nc(=O)n(CCC#N)nc1SC | > 100 µM |  |
| Nc1ccc([N+](=O)[O-])cc1N=C/C=C/c1ccccc1 | 67.1 µM | 5.05 |
| COc1cc(-c2oc(=O)ccc2C#Cc2ccccn2)cc(OC)c1OC | > 21 µM | 0.607 |
| CCN(CC)CCCN1CCc2c([nH]c3ccccc23)C1c1cccnc1 (configuration not stated) | > 100 µM |  |

| SMILES | TGI | GI50 [µM] |
| --- | --- | --- |
| CNCc1ccccc1-c1csc([C@@H](C)Nc2nc(C)nc3cc(OC)c(OC)cc23)c1 | 4.33 µM | 1.71 |
| Nc1nc(Cl)cc(NCCCCCCCCNc2cc(Cl)nc(N)n2)n1 | > 100 µM |  |
| CC(C)N(C(=O)C12C3C4C1C1C4(C#N)C3C12C#N)C(C)C (configuration not stated) | > 100 µM |  |
| O=C1CCC(Cl)=CC2CCCN12 (configuration not stated) | > 100 µM |  |
| c1ccc2cc(-c3cc4ccccc4s3)ccc2c1 | > 100 µM |  |
| CCOC(=O)C(C#N)C1=CC(=O)C(=O)c2ccc(OC)cc21 (configuration not stated) | 94.2 µM |  |
| Cc1ccc(S(=O)(=O)Nc2ccccc2C=O)cc1 | 49.3 µM |  |
| Cc1ccc(S(=O)(=O)N(C=O)N=C2CCN(Cc3ccccc3)CC2)cc1 | > 100 µM |  |
| CC(C)C(CCl)NC(=O)c1cccc(C(=O)N[C@H](CCl)C(C)C)n1 (stereo in doubt) | > 100 µM |  |
| CCC(=O)CC(=O)CCC(=O)Nc1cc(C)ccc1C | > 100 µM |  |
| CC[As](CC)SC[C@H](C)C(=O)N1CCC[C@H]1C(=O)O | > 100 µM | 0.339 |
| NC(N)=N/N=C/c1c(-c2ccsc2)nc2sccn12 | 25.3 µM | 11.6 |
| O=c1/c(=C/c2ccccc2[N+](=O)[O-])sc2nnc(-c3ccco3)n12 | > 100 µM |  |
| CC(=O)CCn1ncc(Cl)c(Cl)c1=O | 34.1 µM |  |
| C[N+](C)(C)CC1CCCc2ccccc2C1=O (configuration not stated) | 30.7 µM | 7.65 |
| CN1CC(=O)N2Cc3ccccc3-n3cccc3C2C1 (configuration not stated) | > 100 µM |  |
| NC(=S)N/N=C/C(=O)O | > 100 µM | > 100 |
| Cc1ccc(SC2c3ccc(C)cc3Oc3nc(N)c(C#N)c(N)c32)cc1 (configuration not stated) | 3.9 µM | 2 |
| Cc1cn2c(=O)c3ncn(C4OC(CO)C(O)C4O)c3n(C)c2n1 (configuration not stated) | > 100 µM |  |

The compounds below were run on RPMI-8226 leukemia (assay: inhibition of tumour cell growth, NCI panel, 48 h).

| SMILES | TGI | GI50 [µM] |
| --- | --- | --- |
| Clc1ccc2c(c1)[nH]c1c2nc2ccccn21 | 64.7 µM and 54.5 µM |  |
| CCOC(=O)c1cnc2c(ccc3[nH]n(C)nc32)c1=O | 67.5 µM |  |
| NC(=S)N/N=C(\CC1OC(=O)c2ccccc21)c1ccc(Cl)cc1 (configuration not stated) | > 100 µM |  |
| COc1ccc2occ(CCC(=O)O)c2c1 | > 100 µM |  |
| COC(=O)C(C(=O)c1ccccc1)C(C(=O)C(=O)Nc1ccc(OC)cc1OC)C(=O)C(=O)c1ccc(C)cc1 (configuration not stated) | > 100 µM |  |
| CC1(C)COC(C2(C)C(=O)C=C(c3ccccc3)c3ccccc32)=N1 (configuration not stated) | > 100 µM |  |
| O=C(Nc1ccn(CCO)c(=O)n1)c1ccccc1 | > 100 µM |  |
| O=C1CCC2(c3ccc(Cl)cc3)Nc3ncccc3N12 (configuration not stated) | > 100 µM |  |
| COc1ccc(Sc2[nH]c(C(C)=O)c3ccccc23)cc1 | 33.4 µM | 10.9 |
| CC12C/C(=C\c3ccccc3)C(=O)C3C1CCCC32 | > 100 µM |  |
| OC(CC1SCCCS1)c1ccccc1 (configuration not stated) | > 100 µM |  |
| CCCCOC(=O)CNC(=O)OC/C=C/C#CC#C/C=C/COC(=O)NCC(=O)OCCCC | > 100 µM | > 100 |
| O=C1c2ccccc2C(=O)N1CCn1ccc(NC(c2ccccc2)(c2ccccc2)c2ccccc2)nc1=O | 51.3 µM |  |
| CC(C)(C)NNC(=O)CCn1[nH]c(=O)c(Cl)c(Cl)c1=O | > 100 µM |  |
| O=CCC1CCCCC1 | > 100 µM |  |
| CCC12CCCN(Cc3ccccc3)C1c1c(n(C)c3ccccc13)CC2 (configuration not stated) | > 253 µM |  |
| CSc1nc(=O)n(CCC#N)nc1SC | 98.4 µM |  |
| Nc1ccc([N+](=O)[O-])cc1N=C/C=C/c1ccccc1 | > 100 µM | 5.05 |
| Cc1cc(Nc2ccc(NC(=O)c3ccc(Nc4ccnc5ccccc45)cc3)cc2)nc(N)n1 | > 100 µM | > 100 |

| SMILES | TGI | GI50 [µM] |
| --- | --- | --- |
| COc1cc(-c2oc(=O)ccc2C#Cc2ccccn2)cc(OC)c1OC | 9.59 µM | 1.8 |
| CCN(CC)CCCN1CCc2c([nH]c3ccccc23)C1c1cccnc1 (configuration not stated) | > 100 µM |  |
| COC(=O)C1c2cc3c(cc2C(OC2OC(C)C(OC)C(C)(OC)C2OC)CC1(C)O)C(=O)c1c(O)cc2c(c1C3=O)OC1OC2(C)C(O)C([N+](C)(C)[O-])C1O (configuration not stated) | > 100 µM |  |
| CNCc1ccccc1-c1csc([C@@H](C)Nc2nc(C)nc3cc(OC)c(OC)cc23)c1 | 4.3 µM | 1.77 |
| Nc1nc(Cl)cc(NCCCCCCCCNc2cc(Cl)nc(N)n2)n1 | > 100 µM |  |
| CC(C)N(C(=O)C12C3C4C1C1C4(C#N)C3C12C#N)C(C)C (configuration not stated) | > 100 µM |  |
| O=C1CCC(Cl)=CC2CCCN12 (configuration not stated) | > 100 µM |  |
| c1ccc2cc(-c3cc4ccccc4s3)ccc2c1 | > 100 µM |  |
| CCOC(=O)C(C#N)C1=CC(=O)C(=O)c2ccc(OC)cc21 (configuration not stated) | > 100 µM |  |
| Cc1ccc(S(=O)(=O)Nc2ccccc2C=O)cc1 | 36 µM |  |
| Cc1ccc(S(=O)(=O)N(C=O)N=C2CCN(Cc3ccccc3)CC2)cc1 | > 100 µM |  |
| CC(C)C(CCl)NC(=O)c1cccc(C(=O)N[C@H](CCl)C(C)C)n1 (stereo in doubt) | > 100 µM |  |
| CCC(=O)CC(=O)CCC(=O)Nc1cc(C)ccc1C | > 100 µM |  |
| CC[As](CC)SC[C@H](C)C(=O)N1CCC[C@H]1C(=O)O | 0.0112 µM | < 0.01 |
| NC(N)=N/N=C/c1c(-c2ccsc2)nc2sccn12 | 20.7 µM | 4.83 |
| CC(=O)CCn1ncc(Cl)c(Cl)c1=O | > 100 µM |  |
| NC(=S)N/N=C/C(=O)O | > 100 µM | > 100 |
| Cc1ccc(SC2c3ccc(C)cc3Oc3nc(N)c(C#N)c(N)c32)cc1 (configuration not stated) | 5.12 µM | 2.15 |
| Cc1cn2c(=O)c3ncn(C4OC(CO)C(O)C4O)c3n(C)c2n1 (configuration not stated) | > 100 µM |  |

What follows are compounds tested on DU-145 prostate (assay: inhibition of tumour cell growth, NCI panel, 48 h).

| SMILES | GI50 [µM] | TGI [µM] |
| --- | --- | --- |
| COc1ccc(Sc2[nH]c(C(C)=O)c3ccccc23)cc1 | 16 | 36.8 |
| C#CCOc1cccc(-c2ncc3cc(NC(=O)CCl)ccc3n2)c1 | 1.79 | 3.19 |
| CSc1nc(=O)n(CCC#N)nc1SC |  | > 100 |
| Nc1ccc([N+](=O)[O-])cc1N=C/C=C/c1ccccc1 | 13.9 | 64.9 |
| Cc1cc(Nc2ccc(NC(=O)c3ccc(Nc4ccnc5ccccc45)cc3)cc2)nc(N)n1 | 2.03 | 5.16 |
| COc1cc(-c2oc(=O)ccc2C#Cc2ccccn2)cc(OC)c1OC | 3.48 | > 29.5 |
| COC(=O)C1c2cc3c(cc2C(OC2OC(C)C(OC)C(C)(OC)C2OC)CC1(C)O)C(=O)c1c(O)cc2c(c1C3=O)OC1OC2(C)C(O)C([N+](C)(C)[O-])C1O (configuration not stated) |  | > 30.1 |
| CNCc1ccccc1-c1csc([C@@H](C)Nc2nc(C)nc3cc(OC)c(OC)cc23)c1 | 4.59 | 15.6 |
